“And” between values parts separate entries of the source, which are not always exact repeats. Identical values can stand only once.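 Each compound was tested at five concentrations against cells in 96-well plates for 48 hours. GI50 is the concentration that inhibits growth by half. TGI: total growth inhibition.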
What was measured:
Experiment in all cases: growth of human tumour cells (NCI), 48 h
HT29 colon = system: HT29 colon
NCI-H460 lung = system: NCI-H460 lung
NCI-H522 lung = system: NCI-H522 lung
RXF 393 renal = system: RXF 393 renal
HCT-116 colon = system: HCT-116 colon
A549 NSCLC = system: A549 NSCLC
DU-145 prostate = system: DU-145 prostate
M14 melanoma = system: M14 melanoma
LOX IMVI melanoma = system: LOX IMVI melanoma
SF-295 CNS = system: SF-295 CNS
CAKI-1 renal = system: CAKI-1 renal
SN12C renal = system: SN12C renal
HCT-15 colon = system: HCT-15 colon
NCI/ADR-RES ovarian = system: NCI/ADR-RES ovarian
NCI-H226 lung = system: NCI-H226 lung
MCF7 breast = system: MCF7 breast
HCC-2998 colon = system: HCC-2998 colon
MDA-MB-435 = system: MDA-MB-435
SW-620 colon = system: SW-620 colon
RPMI-8226 leukemia = system: RPMI-8226 leukemia
MOLT-4 leukemia = system: MOLT-4 leukemia
SK-OV-3 ovarian = system: SK-OV-3 ovarian
SK-MEL-28 melanoma = system: SK-MEL-28 melanoma
K-562 leukemia = system: K-562 leukemia
HOP-62 NSCLC = system: HOP-62 NSCLC
A498 renal = system: A498 renal
OVCAR-8 ovarian = system: OVCAR-8 ovarian
HOP-92 NSCLC = system: HOP-92 NSCLC
BT-549 breast = system: BT-549 breast
HL-60(TB) leukemia = system: HL-60(TB) leukemia
SNB-19 CNS = system: SNB-19 CNS
ACHN renal = system: ACHN renal
IGROV1 ovarian = system: IGROV1 ovarian
OVCAR-3 ovarian = system: OVCAR-3 ovarian
NCI-H23 lung = system: NCI-H23 lung
KM12 colon = system: KM12 colon
PC-3 prostate = system: PC-3 prostate
OVCAR-5 ovarian = system: OVCAR-5 ovarian
TK-10 renal = system: TK-10 renal
SF-268 CNS = system: SF-268 CNS
SK-MEL-2 melanoma = system: SK-MEL-2 melanoma
CCRF-CEM leukemia = system: CCRF-CEM leukemia
SR leukemia = system: SR leukemia
EKVX NSCLC = system: EKVX NSCLC
COLO 205 colon = system: COLO 205 colon
HS 578T breast = system: HS 578T breast
UO-31 renal = system: UO-31 renal
786-0 renal = system: 786-0 renal
OVCAR-4 ovarian = system: OVCAR-4 ovarian
MALME-3M melanoma = system: MALME-3M melanoma
UACC-257 melanoma = system: UACC-257 melanoma
U251 CNS = system: U251 CNS
SF-539 CNS = system: SF-539 CNS
UACC-62 melanoma = system: UACC-62 melanoma
SK-MEL-5 melanoma = system: SK-MEL-5 melanoma
MDA-MB-231 breast = system: MDA-MB-231 breast

COc1ccc(-c2cc(=O)oc3ccc(Cl)cc23)cc1F
GI50 (HT29 colon): 0.0538 µM and 0.0397 µM
TGI (HT29 colon): 0.336 µM
GI50 (NCI-H460 lung): 0.167 µM and 0.0499 µM
TGI (NCI-H460 lung): 21.8 µM
GI50 (NCI-H522 lung): 0.0349 µM and 0.0218 µM
GI50 (RXF 393 renal): 0.141 µM and 0.233 µM
GI50 (HCT-116 colon): 0.0913 µM and 0.0447 µM
TGI (HCT-116 colon): 3.63 µM and 10.7 µM
GI50 (A549 NSCLC): 0.268 µM and 0.105 µM
TGI (A549 NSCLC): > 100 µM
GI50 (DU-145 prostate): 0.255 µM and 0.261 µM
TGI (DU-145 prostate): 4.16 µM and 27.3 µM
GI50 (M14 melanoma): 0.0519 µM and 0.0423 µM
TGI (M14 melanoma): > 100 µM
GI50 (LOX IMVI melanoma): 0.186 µM and 0.0695 µM
TGI (LOX IMVI melanoma): > 100 µM
GI50 (SF-295 CNS): 0.0845 µM and 0.0367 µM
TGI (SF-295 CNS): 14.2 µM
TGI (CAKI-1 renal): > 100 µM
TGI (SN12C renal): > 100 µM
GI50 (HCT-15 colon): 0.0537 µM and 0.0463 µM
TGI (HCT-15 colon): 10.4 µM
GI50 (NCI/ADR-RES ovarian): 0.0442 µM and 0.0478 µM
GI50 (NCI-H226 lung): 0.705 µM and 3.94 µM
TGI (NCI-H226 lung): > 100 µM
GI50 (MCF7 breast): 0.0785 µM and 0.0468 µM
TGI (MCF7 breast): 18.6 µM
GI50 (HCC-2998 colon): 0.59 µM and 0.243 µM
TGI (HCC-2998 colon): 30.2 µM
GI50 (MDA-MB-435): 0.0233 µM and 0.02 µM
TGI (MDA-MB-435): 0.0675 µM and 0.0531 µM
GI50 (SW-620 colon): 0.053 µM and 0.0431 µM
TGI (SW-620 colon): > 100 µM
GI50 (RPMI-8226 leukemia): 0.297 µM and 0.106 µM
TGI (RPMI-8226 leukemia): > 100 µM
GI50 (MOLT-4 leukemia): 0.31 µM and 0.0571 µM
TGI (MOLT-4 leukemia): > 100 µM
GI50 (SK-OV-3 ovarian): 0.384 µM and 0.209 µM
TGI (SK-OV-3 ovarian): > 100 µM
GI50 (SK-MEL-28 melanoma): 1.71 µM and 3.05 µM
TGI (SK-MEL-28 melanoma): > 100 µM
GI50 (K-562 leukemia): 0.0435 µM and 0.0401 µM
GI50 (HOP-62 NSCLC): 0.208 µM and 0.188 µM
TGI (HOP-62 NSCLC): 27.3 µM
GI50 (A498 renal): 0.103 µM and 0.0471 µM
TGI (A498 renal): 0.79 µM and 5.17 µM
GI50 (OVCAR-8 ovarian): 0.49 µM and 0.327 µM
TGI (OVCAR-8 ovarian): > 100 µM
TGI (HOP-92 NSCLC): 7.94 µM
GI50 (BT-549 breast): 0.303 µM and 0.0665 µM
TGI (BT-549 breast): 6.62 µM
GI50 (HL-60(TB) leukemia): 0.129 µM and 0.0339 µM
TGI (HL-60(TB) leukemia): 0.908 µM and 0.48 µM
GI50 (SNB-19 CNS): 0.35 µM and 0.0744 µM
TGI (SNB-19 CNS): > 100 µM
TGI (ACHN renal): > 100 µM
GI50 (IGROV1 ovarian): 1.16 µM and 0.683 µM
TGI (IGROV1 ovarian): > 100 µM
GI50 (OVCAR-3 ovarian): 0.0502 µM and 0.0379 µM
TGI (OVCAR-3 ovarian): 0.497 µM and 0.345 µM
GI50 (NCI-H23 lung): 0.302 µM and 0.413 µM
TGI (NCI-H23 lung): 96 µM
GI50 (KM12 colon): 0.0712 µM and 0.0524 µM
TGI (KM12 colon): 11 µM
GI50 (PC-3 prostate): 0.274 µM and 0.0797 µM
TGI (PC-3 prostate): > 100 µM
GI50 (OVCAR-5 ovarian): 0.633 µM and 1.26 µM
TGI (OVCAR-5 ovarian): > 100 µM
GI50 (TK-10 renal): 0.435 µM
TGI (TK-10 renal): 79.6 µM
GI50 (SF-268 CNS): 0.616 µM and 0.302 µM
TGI (SF-268 CNS): > 100 µM
GI50 (SK-MEL-2 melanoma): 0.212 µM and 0.0385 µM
TGI (SK-MEL-2 melanoma): 2.68 µM
GI50 (CCRF-CEM leukemia): 0.222 µM and 0.0599 µM
TGI (CCRF-CEM leukemia): > 100 µM
GI50 (SR leukemia): 0.0426 µM
GI50 (EKVX NSCLC): 0.509 µM and 0.362 µM
TGI (EKVX NSCLC): > 100 µM
GI50 (COLO 205 colon): 0.146 µM and 0.0853 µM
TGI (COLO 205 colon): 1.09 µM and 0.896 µM
GI50 (HS 578T breast): 0.181 µM and 0.0754 µM
TGI (HS 578T breast): 68.9 µM
GI50 (UO-31 renal): 0.755 µM and 1.2 µM
TGI (UO-31 renal): > 100 µM
GI50 (786-0 renal): 0.366 µM and 0.0877 µM
TGI (786-0 renal): > 100 µM
GI50 (OVCAR-4 ovarian): 1.03 µM and 5.59 µM
TGI (OVCAR-4 ovarian): > 100 µM
GI50 (MALME-3M melanoma): 59.2 µM
TGI (MALME-3M melanoma): > 100 µM
GI50 (UACC-257 melanoma): 23.2 µM
TGI (UACC-257 melanoma): > 100 µM
GI50 (U251 CNS): 0.331 µM and 0.0519 µM
TGI (U251 CNS): 12.6 µM
GI50 (SF-539 CNS): 0.126 µM and 0.0475 µM
TGI (SF-539 CNS): 0.733 µM and 0.479 µM
GI50 (UACC-62 melanoma): 0.0377 µM and 0.0406 µM
TGI (UACC-62 melanoma): > 100 µM
GI50 (SK-MEL-5 melanoma): 0.14 µM and 0.0717 µM
TGI (SK-MEL-5 melanoma): 0.835 µM and 2.35 µM
TGI (MDA-MB-231 breast): > 100 µM

From PubChem BioAssay (NCI)
